Assay results as given in US20100015249A1, “Antitumor agent containing 6'-amidino-2'-naphthyl 4-guanidinobenzoate or salt thereof” (priority 2005, published 2010).

Experiments:
NF-κB = experiment: Gel shift assay of gemcitabine-induced NF-κB activation; type: cell-based, human; conditions: MDAPanc-28, pretreatment 3 hours then gemcitabine 3 hours
Experimental: At the same time, the present inventors also made a comparison with the other NF-κB inhibitors PS1145 and PS341. […] Subsequently, a gel shift assay was performed to examine the effect on NF-κB activation.

[1] = test system: human pancreas cancer cell line MDAPanc-28; experiment: Apoptosis ratio by flow cytometry (propidium iodide, FACScan); type: cell-based; conditions: for apoptosis induction in combination with gemcitabine: MDAPanc-28, pretreatment with the agent 3 hours then gemcitabine 48 hours, compared with gemcitabine alone
Experimental: The present inventors next examined the effect of these agents on apoptosis induction in the human pancreas cancer cell line MDAPanc-28. […] Flow cytometry was used to confirm the occurrence of apoptosis. Cells were collected after treatments with the agents and fixed in 70% ethanol at −20° C. for 24 hours. After rinsing with PBS, cells were suspended in PBS containing 50 μg/ml of propium iodide, 0.1% Triton X-100, 0.1% sodium citrate and 1 μg/ml of DNase free RNase. The samples were incubated at room temperature for 30 minutes and the amount of DNA was measured by using FACScan.

Murine fiber cells = experiment: Effect on survival rate of normal cells; type: cell-based; conditions: concentrations under which apoptosis was induced in cells
Text: Therefore, the present inventors next examined the effect of FUT treatment on normal cells. Murine fiber cells were used as normal cells.

[2] = test system: human pancreas cancer cell line MDAPanc-28; experiment: MTT assay of cell survival rate / living cell ratio; type: cell-based; conditions: MDAPanc-28, single agent, MTT
Experimental: The present inventors examined the concomitant effect of FUT and TNF-α on apoptosis in cancer cells. After treatment with TNF-α for 24 hours, the human pancreas cancer cell line MDAPanc-28 was further cultured for 24 hours with various concentrations of FUT being added. Cells prepared were then subjected to an MTT assay according to the method generally known to calculate the cell survival rates. Also, DNA was extracted to perform a DNA fragmentation assay.
More specifically, with regard to the MTT assay, each well was seeded with 2000 cells per 100 μl of culture medium in a 96-well microtiterplate, followed by the above mentioned treatment. After plate centrifugation, each well received 5 mg/ml of MTT (Sigma) PBS solution instead of culture medium and was incubated for 4 hours at 37° C. After removing the supernatant, 100 μl of DMSO were added to dissolve the cells. The absorbance of the samples was measured at 570 nm by using a microplate reader. 8 wells were subjected to the same condition in this experiment. Two independent experiments were performed, and the average was calculated.
However, the agents are of different types with different mechanisms of action. Therefore, the present inventors examined the effect of each agent on the living cell ratio in the human pancreas cancer cell line MDAPanc-28 singularly. After being treated with each agent for 24 hours and 48 hours, the human pancreas cancer cell line MDAPanc-28 was subjected to a MTT assay. The MTT assay was performed by the method described in Example 9.

[3] = test system: human pancreas cancer cell line MDAPanc-28; experiment: DNA fragmentation assay (apoptosis); type: cell-based; conditions: MDAPanc-28, TNF-α 5 ng/ml 24 hours, then with or without FUT 24 hours
Experimental: After adding 1000 U/ml of protease K, the sample was further incubated for 5 hours at 50° C. After extracting DNA with phenol/chloroform/isoamyl alcohol, isopropanol and ammonium acetate were added to the collected water-soluble fractions in order to collect precipitates. The precipitates were then rinsed with 70% ethanol and dissolved in Tris-EDTA buffer. Electrophoresis was performed on a 2% agarose gel and DNA bands were confirmed by using ethidium bromide. The present inventors examined the concomitant effect of FUT and TNF-α on apoptosis in cancer cells. After treatment with TNF-α for 24 hours, the human pancreas cancer cell line […]-28 was further cultured for 24 hours with various concentrations of FUT being added. Cells prepared were then subjected to an MTT assay according to the method generally known to calculate the cell survival rates. Also, DNA was extracted to perform a DNA fragmentation assay. More specifically, with regard to the MTT assay, each well was seeded with 2000 cells per 100 μl of culture medium in a 96-well microtiterplate, followed by the above mentioned treatment. […] The absorbance of the samples was measured at 570 nm by using a microplate reader. […] Two independent experiments were performed, and the average was calculated. […]

[4] = Body weight of Panc-1 transplanted nude mice after treatment; type: in vivo; conditions: Panc-1 s.c., 6 weeks treatment, gemcitabine 100 mg/kg once a week i.p., FUT-175 30 mg/kg three times a week i.p.
Experimental: (§1) Tumor volume, the body weight and extirpated tumor weight were measured and pictures were taken for each group of mice.

[5] = test system: human pancreas cancer cell line Panc-1; experiment: Subcutaneous Panc-1 transplant in nude mice: tumor volume and weight; type: in vivo; conditions: Panc-1 s.c., 6 weeks treatment, gemcitabine 100 mg/kg once a week i.p., FUT-175 30 mg/kg three times a week i.p.
Experimental: as §1

Compound: CC(C)C[C@H](NC(=O)[C@H](Cc1ccccc1)NC(=O)c1cnccn1)B(O)O [PS341]
- effect on gemcitabine-induced activation of NF-κB (NF-κB): showed a similar trend
- apoptosis induction in combination with gemcitabine [1]: further enhanced the effect on apoptosis induction
- survival rate of normal cells (Murine fiber cells): significantly decreased the survival rate of normal cells
- inhibitory effect on proliferation, 24-hour treatment [2]: no significant inhibitory effect on proliferation
- inhibitory effect on proliferation, 48-hour treatment [2]: no significant inhibitory effect on proliferation

Compound: TNF-α
- DNA fragmentation [3]: showed no DNA fragmentation

Compound: Nc1ccn([C@@H]2O[C@H](CO)[C@@H](O)C2(F)F)c(=O)n1 [gemcitabine]
- body weight of mice after administration [4]: showed weight reduction
- apoptosis induction, single agent ([1]; MDAPanc-28, gemcitabine alone for 48 hours): induced apoptosis
- Extirpated tumor weight, level of the control [5]: approximately 50%
- Tumor volume, level of the control [5]: approximately 50%

Compound: O=C(Nc1cc(Cl)cc2c1[nH]c1cnccc12)c1cccnc1 [PS1145]
- effect on gemcitabine-induced activation of NF-κB (NF-κB): showed a similar trend
- apoptosis induction in combination with gemcitabine [1]: further enhanced the effect on apoptosis induction
- survival rate of normal cells (Murine fiber cells): significantly decreased the survival rate of normal cells
- inhibitory effect on proliferation, 24-hour treatment [2]: did not show any significant inhibitory effect
- inhibitory effect on proliferation, 48-hour treatment [2]: concentration-dependent inhibitory effect on proliferation
